The values below are quoted from earlier work in US20030073069A1, “Drug rescue by redesign of ADMET/PK properties” (priority 2001, published 2003).

Each structure is given as a SMILES string.

The first data set relates to P450. To be noted: induction of a P450.
Regarding `C=C[C@H]1C[N@@]2CC[C@H]1C[C@H]2[C@H](O)c1ccnc2ccc(OC)cc12` [quinine], the “No. of currently known drug interactions that involve the compound, Induction” value was 2.

Consider `C[C@H]1C[C@H]2[C@@H]3CCC4=CC(=O)C=C[C@]4(C)[C@@]3(F)[C@@H](O)C[C@]2(C)[C@@]1(O)C(=O)CO` [betamethasone], for which the “No. of currently known drug interactions that involve the compound, Induction” value is 15.

Turning to `C[C@@H]1C[C@H]2[C@@H]3CCC4=CC(=O)C=C[C@]4(C)[C@@]3(F)[C@@H](O)C[C@]2(C)[C@@]1(O)C(=O)CO` [dexamethasone], the “No. of currently known drug interactions that involve the compound, Induction” value is 14.

Regarding `CC(C)N(CCC(C(N)=O)(c1ccccc1)c1ccccn1)C(C)C` (centres unmarked) [disopyramide], the “No. of currently known drug interactions that involve the compound, Induction” value is recorded as 3.

Consider `O=C(CCCN1CCC(O)(c2ccc(Cl)cc2)CC1)c1ccc(F)cc1` [haloperidol], for which the “No. of currently known drug interactions that involve the compound, Induction” value is reported as 3.

For `Clc1ccc(COC(Cn2ccnc2)c2ccc(Cl)cc2Cl)c(Cl)c1` (centres unmarked) [miconazole], the “No. of currently known drug interactions that involve the compound, Induction” value was 2.

As for `CCC1(c2ccccc2)C(=O)NC(=O)NC1=O` [phenobarbital], the “No. of currently known drug interactions that involve the compound, Induction” value is given as 1.

`CC(=O)Nc1ccc(O)cc1` [acetaminophen]: the “No. of currently known drug interactions that involve the compound, Induction” value is reported as 4.

On to `COc1ccc2c(c1)[C@]13CCCC[C@@H]1[C@H](C2)N(C)CC3` [detromethorphan], for which the “No. of currently known drug interactions that involve the compound, Induction” value was 1.

Turning to `C[C@]12CCC(=O)C=C1CC[C@H]1[C@@H]3CC[C@](O)(C(=O)CO)[C@@]3(C)C[C@H](O)[C@@]12F` [fludrocortisone], the “No. of currently known drug interactions that involve the compound, Induction” value is 14.

Turning to `C[C@]12C=CC(=O)C=C1CC[C@H]1[C@@H]3C[C@@H](O)[C@](O)(C(=O)CO)[C@@]3(C)C[C@H](O)[C@@]12F` [triamcinolone], the “No. of currently known drug interactions that involve the compound, Induction” value is reported as 10.

For `CC(C)Nc1cccnc1N1CCN(C(=O)c2cc3cc(NS(C)(=O)=O)ccc3[nH]2)CC1` [delavirdine], the “No. of currently known drug interactions that involve the compound, Induction” value is on record as 2.

For the molecule `O=C1CC2(CCCC2)CC(=O)N1CCCCN1CCN(c2ncccn2)CC1` [buspirone], the “No. of currently known drug interactions that involve the compound, Induction” value is reported as 2.

With `C[C@]12CCC(=O)C=C1CC[C@@H]1[C@@H]2C(=O)C[C@@]2(C)[C@H]1CC[C@]2(O)C(=O)CO` [cortisone], the “No. of currently known drug interactions that involve the compound, Induction” value was 15.

With `Cc1c(O)cccc1C(=O)N[C@@H](CSc1ccccc1)[C@H](O)CN1C[C@H]2CCCC[C@H]2C[C@H]1C(=O)NC(C)(C)C` [nelfinavir], the “No. of currently known drug interactions that involve the compound, Induction” value is 2.

A further data set relates to P450.
Conditions: not given
With `O=C1CN=C(c2ccccc2)c2cc(Cl)ccc2N1CC1CC1` [prazapam], the “No. of currently known drug interactions that involve the compound, Inhibition” value is on record as 2.

Take `CN1C[C@H](C(=O)N[C@]2(C)O[C@@]3(O)[C@@H]4CCCN4C(=O)[C@H](Cc4ccccc4)N3C2=O)C[C@@H]2c3cccc4[nH]cc(c34)C[C@H]21` [dihydroergotamine]: the “No. of currently known drug interactions that involve the compound, Inhibition” value is 7.

As for `CCC(=O)O[C@](Cc1ccccc1)(c1ccccc1)[C@H](C)CN(C)C` [propoxyphene], the “No. of currently known drug interactions that involve the compound, Inhibition” value is listed as 1.

As to `CN1C[C@H](C(=O)N[C@]2(C)O[C@@]3(O)[C@@H]4CCCN4C(=O)[C@H](Cc4ccccc4)N3C2=O)C=C2c3cccc4[nH]cc(c34)C[C@H]21` [ergotamine], the “No. of currently known drug interactions that involve the compound, Inhibition” value is given as 7.

Staying with this data set, now noted: inhibition of a P450.
Take `COc1ccc(CCN2CCC(Nc3nc4ccccc4n3Cc3ccc(F)cc3)CC2)cc1` [astemizole]: the “No. of currently known drug interactions that involve the compound, Inhibition” value is recorded as 10.

Take `CCN(CC)CCCC(C)Nc1ccnc2cc(Cl)ccc12` (centres unmarked) [chloroquine]: the “No. of currently known drug interactions that involve the compound, Inhibition” value was 1.

For `CC[C@H](C)C(=O)O[C@H]1C[C@@H](C)C=C2C=C[C@H](C)[C@H](CC[C@@H]3C[C@@H](O)CC(=O)O3)[C@H]21` [lovastatin], the “No. of currently known drug interactions that involve the compound, Inhibition” value is 5.

For `CNCCCC1c2ccccc2C=Cc2ccccc21` [protriptyline], the “No. of currently known drug interactions that involve the compound, Inhibition” value was 3.

As to `CC(=O)CC(c1ccc([N+](=O)[O-])cc1)c1c(O)c2ccccc2oc1=O` (centres unmarked) [acenocoumarol], the “No. of currently known drug interactions that involve the compound, Inhibition” value is 1.

In the case of `CCCC(CCC)C(=O)O` [valproic acid], the “No. of currently known drug interactions that involve the compound, Inhibition” value is given as 1.

Take `CC[C@]1(O)C[C@@H]2CN(CCc3c([nH]c4ccccc34)[C@@](C(=O)OC)(c3cc4c(cc3OC)N(C)[C@H]3[C@@](O)(C(=O)OC)[C@H](OC(C)=O)[C@]5(CC)C=CCN6CC[C@]43[C@@H]65)C2)C1` [vinblastine]: the “No. of currently known drug interactions that involve the compound, Inhibition” value was 4.

As for `CC(C)(C)NC(=O)[C@@H]1C[C@@H]2CCCC[C@@H]2CN1C[C@@H](O)[C@H](Cc1ccccc1)NC(=O)[C@H](CC(N)=O)NC(=O)c1ccc2ccccc2n1` [saquinavir], the “No. of currently known drug interactions that involve the compound, Inhibition” value is given as 2.

As for `CC[C@H](C)C(=O)O[C@H]1C[C@H](O)C=C2C=C[C@H](C)[C@H](CC[C@@H](O)C[C@@H](O)CC(=O)O)[C@H]21` [pravastatin], the “No. of currently known drug interactions that involve the compound, Inhibition” value is 1.

In the case of `CN(C)CCCN1c2ccccc2Sc2ccccc21` [promazine], the “No. of currently known drug interactions that involve the compound, Inhibition” value is recorded as 1.

As to `OCCN1CCN(CCCN2c3ccccc3Sc3ccc(Cl)cc32)CC1` [perphenazine], the “No. of currently known drug interactions that involve the compound, Inhibition” value is 1.

With `CN1CCCCC1CCN1c2ccccc2Sc2ccc([S+](C)[O-])cc21` (centres unmarked) [mesoridazine], the “No. of currently known drug interactions that involve the compound, Inhibition” value is 1.

Regarding `CN1CCN(CCCN2c3ccccc3Sc3ccc(C(F)(F)F)cc32)CC1` [trifluoperazine], the “No. of currently known drug interactions that involve the compound, Inhibition” value is recorded as 1.

As for `Clc1ccc2c(c1)C(N1CCNCC1)=Nc1ccccc1O2` [amoxapine], the “No. of currently known drug interactions that involve the compound, Inhibition” value is reported as 3.

For `CCSc1ccc2c(c1)N(CCCN1CCN(C)CC1)c1ccccc1S2` [thiethylperazine], the “No. of currently known drug interactions that involve the compound, Inhibition” value is 1.

Take `CCC(=O)c1ccc2c(c1)N(CC(C)N(C)C)c1ccccc1S2` (centres unmarked) [propiomazine]: the “No. of currently known drug interactions that involve the compound, Inhibition” value is recorded as 1.

On to `CC(C)(C)NC[C@H](O)COc1nsnc1N1CCOCC1` [timolol], for which the “No. of currently known drug interactions that involve the compound, Inhibition” value is 1.

As to `CC(C)n1c(/C=C/C(O)CC(O)CC(=O)O)c(-c2ccc(F)cc2)c2ccccc21` (centres unmarked) [fluvastatin], the “No. of currently known drug interactions that involve the compound, Inhibition” value was 1.

On to `COc1ccc2c(c1)N(C[C@H](C)CN(C)C)c1ccccc1S2` [methotrimeprazine], for which the “No. of currently known drug interactions that involve the compound, Inhibition” value is 1.

Turning to `CO[C@H]1/C=C/O[C@@]2(C)Oc3c(C)c(O)c4c(O)c(c(/C=N/N5CCN(C6CCCC6)CC5)c(O)c4c3C2=O)NC(=O)/C(C)=C\C=C\[C@H](C)[C@H](O)[C@@H](C)[C@@H](O)[C@@H](C)[C@H](OC(C)=O)[C@@H]1C` [rifapentine], the “No. of currently known drug interactions that involve the compound, Inhibition” value is recorded as 2.

Consider `CCC(c1ccccc1)c1c(O)c2ccccc2oc1=O` (centres unmarked) [phenprocoumon], for which the “No. of currently known drug interactions that involve the compound, Inhibition” value was 1.

For `COc1ccc(C(=O)Nc2ccccc2CCC2CCCCN2C)cc1` (centres unmarked) [encainide], the “No. of currently known drug interactions that involve the compound, Inhibition” value is 2.

`O=C(NCC1CCCCN1)c1cc(OCC(F)(F)F)ccc1OCC(F)(F)F` (centres unmarked) [flecainide]: the “No. of currently known drug interactions that involve the compound, Inhibition” value is given as 2.

As to `COc1ccc2[nH]c([S+]([O-])Cc3ncc(C)c(OC)c3C)nc2c1` (centres unmarked) [omeprazole], the “No. of currently known drug interactions that involve the compound, Inhibition” value is recorded as 1.

Consider `COc1cc(N)c(Cl)cc1C(=O)NC1CCN(CCCOc2ccc(F)cc2)CC1OC` (centres unmarked) [cisapride], for which the “No. of currently known drug interactions that involve the compound, Inhibition” value is 15.

Turning to `OCCN1CCN(CCCN2c3ccccc3Sc3ccc(C(F)(F)F)cc32)CC1` [fluphenazine], the “No. of currently known drug interactions that involve the compound, Inhibition” value is on record as 1.

As for `CO[C@H]1/C=C/O[C@@]2(C)Oc3c(C)c(O)c4c(c3C2=O)C2=NC3(CCN(CC(C)C)CC3)NC2=C(NC(=O)/C(C)=C\C=C\[C@H](C)[C@H](O)[C@@H](C)[C@@H](O)[C@@H](C)[C@H](OC(C)=O)[C@@H]1C)C4=O` [rifabutin], the “No. of currently known drug interactions that involve the compound, Inhibition” value was 6.

Turning to `CC(=O)c1ccc2c(c1)N(CCCN1CCN(CCO)CC1)c1ccccc1S2` [acetophenazine], the “No. of currently known drug interactions that involve the compound, Inhibition” value is reported as 1.

`COCc1c(C(C)C)nc(C(C)C)c(/C=C/[C@@H](O)C[C@@H](O)CC(=O)O)c1-c1ccc(F)cc1` [cerivastatin]: the “No. of currently known drug interactions that involve the compound, Inhibition” value is given as 5.

Turning to `CN1C(C(=O)Nc2ccccn2)=C(O)c2ccccc2S1(=O)=O` [piroxicam], the “No. of currently known drug interactions that involve the compound, Inhibition” value is 1.

As for `CC[C@]1(O)C[C@H]2CN(CCc3c([nH]c4ccccc34)[C@@](C(=O)OC)(c3cc4c(cc3OC)N(C=O)[C@H]3[C@@](O)(C(=O)OC)[C@H](OC(C)=O)[C@]5(CC)C=CCN6CC[C@]43[C@@H]65)C2)C1` [vincristine], the “No. of currently known drug interactions that involve the compound, Inhibition” value was 4.

On to `CN(C)CCCN1c2ccccc2Sc2ccc(Cl)cc21` [chlorpromazine], for which the “No. of currently known drug interactions that involve the compound, Inhibition” value is reported as 1.

With `CC(CN1c2ccccc2Sc2ccccc21)N(C)C` (centres unmarked) [promethazine], the “No. of currently known drug interactions that involve the compound, Inhibition” value is given as 1.

For `CCCCNC(=O)NS(=O)(=O)c1ccc(C)cc1` [tolbutamide], the “No. of currently known drug interactions that involve the compound, Inhibition” value is given as 1.

Consider `CC(C)COCC(CN(Cc1ccccc1)c1ccccc1)N1CCCC1` (centres unmarked) [bepridil], for which the “No. of currently known drug interactions that involve the compound, Inhibition” value is recorded as 1.

`CN(C)CCCN1c2ccccc2Sc2ccc(C(F)(F)F)cc21` [triflupromazine]: the “No. of currently known drug interactions that involve the compound, Inhibition” value is reported as 1.

Consider `O=c1[nH]c2ccccc2n1C1CCN(CCCC(c2ccc(F)cc2)c2ccc(F)cc2)CC1` [pimozide], for which the “No. of currently known drug interactions that involve the compound, Inhibition” value is 3.
